Literature values in article PMC4284021 (The Journal of Pharmacy and Pharmacology, 2014).

How the values were obtained:
CETP = settings: cited from earlier work
patients [1] = settings: cited from earlier work
patients [2] = settings: cited from earlier work; remark: listed apart in the source
[3] = tested on: CYP11B1 (steroid 11 β-hydroxylase) and CYP11B2 (aldosterone synthase); settings: branched DNA analysis; cited from earlier work
patients [4] = settings: cited from earlier work; remark: listed apart in the source

Compound: COc1cc(F)c(C(C)C)cc1-c1ccc(C(F)(F)F)cc1CN1C(=O)O[C@H](c2cc(C(F)(F)F)cc(C(F)(F)F)c2)[C@@H]1C [anacetrapib]
- time of peak CETP inhibition after dosing (CETP): 4 h
- plasma concentrations after cessation of treatment (patients [1]; 12 weeks after cessation): significant plasma concentrations
- changes in blood pressure or electrolyte or aldosterone levels (patients [1]; through 76 weeks): no changes were noted

Compound: CCC(CC)CC1(C(=O)Nc2ccccc2SC(=O)C(C)C)CCCCC1 [dalcetrapib]
- mean systolic blood pressure higher than in the placebo group (patients [2]): approximately 0.6 mmHg

Compound: CCOC(=O)N1c2ccc(C(F)(F)F)cc2[C@@H](N(Cc2cc(C(F)(F)F)cc(C(F)(F)F)c2)C(=O)OC)C[C@H]1CC [torcetrapib]
- expression of genes regulating CYP11B1 and CYP11B2 [3]: induced expression
- blood pressure and aldosterone levels (patients [4]): increases in blood pressure and aldosterone levels
- mortality and CV events (patients [4]): excess risk
